Data as given in US20200085705A1, “Method of Encapsulating Compounds” (AGENCY FOR SCIENCE, TECHNOLOGY AND RESEARCH, priority 2016, published 2020).

Assay: Titration of polyelectrolytes and ICs with MG (zeta potential, Dh, I/c)
Assay type: physicochemical
Conditions: titration of PAA-b-PEO, PArg and ICs with MG, 10 mM NaCl
Description: Dynamic (DLS) and static (SLS) light scattering measurements were performed with Brookhaven Instruments, 488 nm and 633 nm, 15 W Ion Laser System, equipped with Avalanche Photodiode Detector; DLS measurements were conducted at 90° detection angle. The light scattering titrations were performed with Malvern Zetasizer equipped with auto-titrator, at detection angle of 173°. Samples from loading experiments were analyzed with Shimadzu UV spectrophotometer (UV-3600).
MG was loaded into the ICs by simple mixing the respective solutions at predetermined ratios. FIG. 3 presents the results of titrations of the polyelectrolytes and ICs consisting of these polyelectrolytes with MG. Upon mixing, we observed no change in zeta potential except for slight increase in case of PArg at the beginning of titration. […] We observed small changes in hydrodynamic diameter (DO and normalized scattering intensity (I/c) of the aggregates, indicating bonding. This was later confirmed with NR studies.

Structure (SMILES): COc1ccc(O[C@@H]2O[C@H](CO)[C@@H](O)[C@H](O)[C@H]2O)cc1 [MG, 4-methoxyphenyl β-D-glucopyranoside]
- chargeability of MG (zeta potential upon mixing): not chargeable
